Test results taken from patent US20210338647A1, “Combination of Acetylcholinesterase Inhibitor and 5-HT4 Receptor Agonist As Neuroprotective Agent In the Treatment of Neurodegenerative Diseases” (UNIVERSITE DE CAEN NORMANDIE, priority 2018, published 2021).
Marks after values point to notes of the source that are not given here.

How the values were obtained:
phospho Tau (AT100) = assay: Phosphorylation of Tau (AT100) in MAP-2 neurons injured with Aβ 1-42; format: cell-based, rat; settings: for AT100: Aβ1-42 20 μM/2.5 μM, percentage of control, Example 3
Protocol: (§1) Rat hippocampal neurons were cultured as described by Callizot et al. (2013) J. Neurosci. Res. 91706-716. Pregnant female rats of 17 days gestation (Rats Wistar; Janvier Labs France) were killed using a deep anesthesia with CO2 chamber followed by a cervical dislocation. Then, fetuses were removed from the uterus and immediately placed in ice-cold L15 Leibovitz medium with a 2% penicillin (10,000 U/ml) and streptomycin (10 mg/ml) solution (PS) and 1% bovine serum albumin (BSA). Hippocampal neurons were treated for 20 min at 37° C. with a trypsin-EDTA solution at a final concentration of 0.05% trypsin and 0.02% EDTA. The dissociation was stopped by adding Dulbecco's modified Eagle's medium (DMEM) with 4.5 g/l of glucose, containing DNAse I grade 11 (final concentration 0.5 mg/ml) and 10% fetal calf serum (FCS). Cells were mechanically dissociated by three forced passages through the tip of a 10-ml pipette and then centrifuged at 515×g for 10 min at 4° C. The supernatant was discarded, and the pellet was resuspended in a defined culture medium consisting of Neurobasal medium with a 2% solution of B27 supplement, 2 mmol/l of L-glutamine, 2% of PS solution, and 10 ng/ml of brain-derived neurotrophic factor (BDNF). Viable cells were counted in a Neubauer cytometer, using the trypan blue exclusion test. […] The medium was changed every 2 days.
(§2) The hippocampal neurons were exposed with Aβ solutions (see below) after 17 days of culture. The Aβ1-42 preparation was done following the procedure described by Callizot et al. (2013) J. Neurosci. Res. 91706-716. Briefly, Aβ1-42 peptide was dissolved in the defined culture medium mentioned above, at an initial concentration of 40 μM. This solution was gently agitated for 3 days at 37° C. in the dark and immediately used after being properly diluted in culture medium to the concentrations used (20 μM (plate 1) or 2.5 μM (plate 2) corresponding to 2 μM or 0.25 μM of oligomers (AβO) respectively).
(§3) Donecopride fumarate was solved in culture medium and preincubated 1 h before Aβ application. Aβ1-42 preparation was added to a final concentration of 20 or 2.5 μM (=2 μM or 0.25 μM of AβO, evaluated by automatic Western Blot) diluted in control medium in presence of Donecopride.
(§4) Donecopride fumarate (Donecopride) was tested on one culture in a 96 well plate (6 wells per conditions). The compound was preincubated one hour before […] application. The following conditions were assessed:
(§5) After permeabilization with 0.1% of saponin, cells were incubated for 2 h with:
b) mouse monoclonal antibody anti-phospho Tau (AT100) at dilution of 1/400 in PBS containing 1% fetal calf serum and 0.1% of saponin.
(§6) For each condition, 30 pictures (representative of the whole well area) per well were taken using ImageXpress (Molecular Devices) at 20× magnification. All images were taken with the same acquisition parameters. Analyses were performed automatically by using Custom Module Editor (Molecular Devices).
area of tau in neurons (μm^2, overlapping with MAP-2 positive neurons).
(§7) Rat hippocampal neurons were cultured as described by Callizot et al. (2013) J. Neurosci. Res. 91:706-716. Briefly, pregnant female rats of 17 days gestation (Rats Wistar; Janvier Labs France) were killed using a deep anesthesia with CO2 chamber and a cervical dislocation. Then, fetuses were removed from the uterus and immediately placed in ice-cold L15 Leibovitz medium with a 2% penicillin (10,000 U/ml) and streptomycin (10 mg/ml) solution (PS) and 1% bovine serum albumin (BSA). The hippocampi were treated for 20 min at 37° C. with a trypsin-EDTA solution at a final concentration of 0.05% trypsin and 0.02% EDTA. The dissociation was stopped by addition of Dulbecco's modified Eagle's medium (DMEM) with 4.5 g/l of glucose, containing DNAse I grade II (final concentration 0.5 mg/ml) and 10% fetal calf serum (FCS). Cells were mechanically dissociated by three forced passages through the tip of a 10-ml pipette.

[1] = tested on: rat primary hippocampal neurons injured with Aβ 1-42; assay: Survival of MAP-2 neurons in primary culture of hippocampal neurons injured with Aβ 1-42; format: cell-based; settings: for Survival: Aβ1-42 20 μM/2.5 μM, percentage of control, Example 3
Protocol: as §1
as §2, with “respectively). […]” for “respectively).”
The compound was preincubated one hour before […] application. The following conditions were assessed:
as §5
a) chicken polyclonal antibody anti microtubule-associated-protein 2 (MAP-2), diluted at 1/1000 in PBS containing 1% fetal calf serum and 0.1% of saponin (this antibody allows the specific staining of neuronal cell bodies and neurites; and allow the study of neuronal cell death and neurite network).
as §6
Total number of neurons (neuron survival, number of MAP-2 positive neurons)
as §7, with “EDTA.” for “EDTA. The dissociation was stopped by addition of Dulbecco's modified Eagle's medium (DMEM) with 4.5 g/l of glucose, containing DNAse I grade II (final concentration 0.5 mg/ml) and 10% fetal calf serum (FCS). Cells were mechanically dissociated by three forced passages through the tip of a 10-ml pipette.”

[2] = tested on: rat primary hippocampal neurons injured with Aβ 1-42; assay: Number of synapses (PSD95/SYN overlap) in primary culture of hippocampal neurons injured with Aβ 1-42; format: cell-based; settings: for Synapses: Aβ1-42 20 μM/2.5 μM, percentage of control, Example 3
Protocol: as §1, §2, §3, §4, §5
a) mouse monoclonal antibody anti post synaptic density 95 kDa (PSD95) at a dilution of 1/100 in PBS containing 1% fetal calf serum and 0.1% of saponin.
b) Rabbit polyclonal antibody anti-synaptophysin (SYN) at the dilution of 1/100 in PBS containing 1% fetal calf serum and 0.1% of saponin.
For each condition, 40 pictures per well were taken using ImageXpress (Molecular Devices) with 40× magnification. All images were taken with the same acquisition parameters.
Synapses evaluation was performed automatically by using Custom module editor (Molecular Devices).
Total number of synapses (overlapping between PSD95/SYN).
To assess the formation of synapses, the distribution of PSD-95, a post-synaptic marker, and synaptophysin, a pre-synaptic marker, was studied. A structure positive for both PSD-95 and synaptophysin staining was considered as a synapse.
Rat hippocampal neurons were cultured as described by Callizot et al. (2013) J. Neurosci. Res. 91:706-716.

[3] = Aβ 1-42 injured hippocampal neurons, Example 3 step 1

COc1cc2c(cc1OC)C(=O)C(CC1CCN(Cc3ccccc3)CC1)C2 (stereo not drawn) [Donepezil]
AT100 (phospho Tau (AT100); donepezil 100 pM): 181% | AT100 (phospho Tau (AT100); donepezil 1 nM): 165%* | AT100 (phospho Tau (AT100); donepezil 1 nM, listed as donepezil): 165% | AT100 (phospho Tau (AT100); donepezil 10 nM): 146%* | AT100 (phospho Tau (AT100); donepezil 50 nM): 139%* | AT100 (phospho Tau (AT100); donepezil 100 nM): 140%* | AT100 (phospho Tau (AT100); donepezil 500 nM): 142%* | AT100 (phospho Tau (AT100); donepezil 1 μM): 141%* | AT100 (phospho Tau (AT100); donepezil 10 μM): 143%* | Lowest active dose in this model ([1]; Aβ 1-42 injured hippocampal neurons, any parameter of Table 7): 1 nM | Survival ([1]; donepezil 100 pM): 69% | Survival ([1]; donepezil 1 nM): 75%* | Survival ([1]; donepezil 10 nM): 86%* | Survival ([1]; donepezil 50 nM): 91%* | Survival ([1]; donepezil 100 nM): 90%* | Survival ([1]; donepezil 500 nM): 86%* | Survival ([1]; donepezil 1 μM): 85%* | Survival ([1]; donepezil 10 μM): 85%* | Number of synapses normalized by the number of neurons (formation of new synapses) ([2]; Donepezil 1 μM, Aβ 1-42 injured hippocampal neurons, Example 1): had no effect | Synapses ([2]; donepezil 100 pM): 68% | Synapses ([2]; donepezil 1 nM): 72% | Synapses ([2]; donepezil 10 nM): 81%* | Synapses ([2]; donepezil 50 nM): 84%* | Synapses ([2]; donepezil 100 nM): 87%* | Synapses ([2]; donepezil 500 nM): 90%* | Synapses ([2]; donepezil 1 μM): 91%* | Synapses ([2]; donepezil 10 μM): 93%*

CCCCN1CCC(CCC(=O)c2cc(Cl)c(N)cc2OC)CC1 [RS67333, 1-(4-amino-5-chloro-2-methoxy-phenyl)-3-(1-butyl-4-piperidinyl)-1-propanone]
Lowest protective active dose: hyperphosphorylation of Tau (phospho Tau (AT100); [3]): 1 nM | Lowest protective active dose: neuronal survival [1, 3]: 50 nM | Lowest protective active dose: synapse [2, 3]: 1 µM
